Measurements from publication PMC12705613 (Frontiers in Microbiology, 2025).
Counter-ions that a name gives are not always drawn.

Key:
gut microbiota = assay: Fecal gut microbiota analysis after ceftriaxone treatment (16S rRNA, bacterial load); type: in vivo, rat; conditions: ceftriaxone sodium 400 mg/kg/day orally, 2 weeks; feces of WKYs and SHRs
Experimental: Fecal samples were freshly collected, rapidly frozen, and weighed before storage at −80 °C until use. The absolute quantification of bacterial 16S rRNA amplicon sequencing was conducted by Majorbio Bio-Pharm Technology Co. Ltd. in Shanghai, China. Total microbial genomic DNA was extracted using the E. Z. N. A.® Soil DNA Kit, following the manufacturer’s guidelines. The quality and concentration of the extracted DNA were assessed through 1.0% agarose gel electrophoresis and with a NanoDrop 2000 spectrophotometer. RT-PCR was performed using universal 16S primers (Forward: 5′-[sequence]-3′, Reverse: 5′-[sequence]-3′) ([Nadkarni et al., 2002]). The relative bacterial load was determined by normalizing the DNA content against the weight of feces from the untreated group.
Fecal DNA was extracted utilizing the E. Z. N. A.® Soil DNA Kit. The extracted DNA was analyzed using a 1% agarose gel, and its concentration and purity were assessed with NanoDrop2000 spectrophotometer. […] The resulting PCR products were purified, quantified, and homogenized to create a sequencing library, which was commissioned to Majorbio Bio Pharm Technology Co. Ltd. The sequencing data were processed using the DADA2 algorithm in Qiime 2 to obtain amplicon sequence variants (ASVs), followed by the removal of chloroplast and mitochondrial sequences. […]

[1] = Body weight and blood pressure during ceftriaxone treatment; conditions: ceftriaxone sodium 400 mg/kg/day orally, 2 weeks; WKYs and SHRs
in vivo = conditions: for MRT last: MRT0-t; for MRT inf: MRT 0-∞; for half-life: t1/2z
Experimental: The pharmacokinetic study was described as follows.
The UHPLC-TQ-MS analysis was conducted on an LC-30 AD ultra high-performance liquid chromatograph (Shimadzu, Japan) connected to an AB 4500 (AB Sciex, United States) Triple Quadrupole Mass Spectrometer with an ESI source. Chromatographic separation was achieved on an Acquity UHPLC HSS T3 column (100 × 2.1 mm, 1.8 μm) at 40 °C, and the eluent was aqueous formic acid (100:0.1, v/v) (A) and acetonitrile with formic acid (100:0.1, v/v) (B) at a flow rate of 0.3 mL min^−1. Gradient elution differs in the calculation of residual content and pharmacokinetic experiments. MRM mode was employed. Data processing was performed using Analyst Software (AB Sciex). The UHPLC-TQ-MS method validation was conducted in terms of selectivity, linearity, carryover, accuracy and precision, matrix effect, extraction recovery, dilution integrity, and stability under various conditions, which was performed in line with the FDA guidelines for bioanalytical assays. More details were described in the Supplementary material method.
The comparisons of the relative abundance of the genera between different groups were performed using the Wilcoxon rank-sum test. Comparisons between WKY and SHRs before and after CRO treatment were conducted using either a t-test or one-way ANOVA, with p values < 0.05 considered statistically significant. […] Graphs were created using GraphPad Prism 8.0 software.
For the determination of drug remaining contents in the supernatant, the gradient elution was as follows: 0.1–0.5 min at 45% B; 0.5–1.0 min at 45–65% B; 1.5–4.0 min at 65–85% B; 4.0–4.5 min at 85% B; 4.5–4.6 min at 85%–45% B; 4.6–5.0 min at 45% B. For pharmacokinetics, the gradient elution was performed as follows: 0–0.5 min at 30% B; 0.5–1.5 min at 30–45% B; 1.5–5.0 min at 45–60% B; 5.0–7.0 min at 60–80% B; 7.0–8.0 min at 80% B; 8.1–10.0 min at 30% B. The injection volume was 5 μ L. The multiple reaction monitoring (MRM) mode was used to detect analytes and IS in the positive ion mode. The mass spectrometry parameters were set as follows: ion spray voltage was 5500 V, turbo spray temperature (TEM) of 550℃; nebulizer gas (gas 1) of 50 psi; heater gas (gas 2) of 50 psi and curtain gas of 40 psi. Nitrogen was kept as the nebulizer and auxiliary gas.

[2] = Metabolites detection in vivo in plasma, feces and urine (UHPLC-Q-TOF-MS); set-up: species or system rat; conditions: single oral losartan potassium 20 mg/kg
Experimental: For urine and feces, cumulative samples were collected over the following time intervals: 0–4, 4–8, 8–12, and 12–24 h after administration. The processing of the biological samples can be found in the Supplementary material.
The biological samples were processed as follows: For plasma, a total of 400 μL of pooled plasma was mixed by combining 50 μL aliquots from each time point. A 100 μL aliquot was mixed with 300 μL of methanol, vortexed for one minute, and centrifuged at 5,000 rpm for 10 minutes at 4°C [1]. In the case of urine, 1 mL was centrifuged at 4,000 rpm for 20 minutes at 4°C, and the supernatant was mixed with 2 mL of methanol, vortexed for one minute, and centrifuged at 12,000 rpm for 10 minutes at 4°C [2]. For fecal samples, 1.0 g of homogenized feces was extracted with 4 mL of methanol, sonicated in an ice-water bath for 20 minutes, and then centrifuged at 12,000 rpm for 10 minutes at 4°C [3]. Supernatants from the plasma, urine, and fecal extracts were evaporated under nitrogen gas, redissolved in methanol, and transferred to liquid chromatography vials. Samples were analyzed using UHPLC-Q-TOF-MS/MS for metabolite profiling.

[3] = Stability of the analytes in rat plasma at different storage conditions; type: in vitro ADME
Experimental: Analysis of QC samples was performed according to a standard curve, which was obtained from freshly prepared calibration standard samples. The autosampler stability was determined by placing samples in the autosampler rack at 8 ℃ for 24 h. The freeze-thaw stability was evaluated after three complete freeze-thaw cycles (-80 ℃ to 25 ℃) on consecutive days. The short-term stability was determined after samples were exposed to room temperature for 6 h. The long-term stability was assessed after storing the samples at -80 ℃ for 30 days. The analytes were considered stable if the deviation between the mean measured concentration and the nominal concentration was within ± 15.0%.

[4] = set-up: method as in Yoo et al., 2016; conditions: ref Yoo et al., 2016; cited from earlier work
[5] = SHR, rat, in vivo, po, 20 mg/kg
[6] = WKY, rat, in vivo, po, 20 mg/kg

Structure (SMILES): CO/N=C(\C(=O)N[C@@H]1C(=O)N2C(C(=O)O)=C(CSc3nc(=O)c(=O)[nH]n3C)CS[C@H]12)c1csc(N)n1 [CRO, ceftriaxone disodium salt hemiheptahydrate]
- α-diversity (Chao1, Shannon index) and bacterial abundance (gut microbiota): significant reduction
- Body weight, CRO-treated vs untreated [1]: no differences in body weight

Structure (SMILES): CCCCc1nc(Cl)c(C=O)n1Cc1ccc(-c2ccccc2-c2nn[nH]n2)cc1 [E-3179]
- AUC0-∞ (in vivo; [5]): 900.54 ± 226.29 ng·h/mL
- AUC(0-t) (in vivo; [5]): 850.57 ± 189.22 ng·h/mL
- Cmax (in vivo; [5]): 143.43 ± 108.27 ng/mL
- MRT0-t (in vivo; [5]): 7.68 ± 1.38 h
- MRT 0-∞ (in vivo; [5]): 11.33 ± 2.86 h
- Tmax (in vivo; [5]): 1.96 ± 1.15 h
- t1/2z (in vivo; [5]): 5.61 ± 3.15 h
- MRT last (in vivo; [5]): 6.99 ± 1.41 h
- MRT inf (in vivo; [5]): 9.57 ± 2.83 h
- Tmax (in vivo; SHR, rat, in vivo, po, 20 mg/kg, Tmax): 1.83 ± 1.69 h
- half-life (in vivo; [5]): 331 ± 148 min
- Decrease of AUC0-∞ (in vivo; SHRs compared to WKYs, losartan potassium 20 mg/kg intragastric): 36.13%
- Cmax (in vivo; [6]): 310.47 ± 243.53 ng/mL
- MRT0-t (in vivo; [6]): 10.46 ± 1.03 h
- MRT 0-∞ (in vivo; [6]): 15.25 ± 4.02 h
- t1/2z (in vivo; [6]): 5.29 ± 1.44 h
- AUC(0-t) (in vivo; WKY, rat, in vivo, po, 20 mg/kg, AUC0-t): 1340 ± 741 ng·h/mL
- AUC(0-inf) (in vivo; WKY, rat, in vivo, po, 20 mg/kg, AUC0-∞): 1410 ± 741 ng·h/mL
- MRT last (in vivo; [6]): 6.18 ± 1.58 h
- MRT inf (in vivo; [6]): 8.79 ± 4.19 h
- half-life (in vivo; [6]): 345 ± 163 min
- Abundance in feces and plasma, SHRs vs WKYs [2]: lower in SHRs than in WKYs
- Abundance in urine, SHRs vs WKYs [2]: more abundant in urine
- Stability RE ([3]; autosampler for 24 h (8 ℃), high nominal conc. (losartan 8000, E-3174 4000, E-3179 1600 ng/mL)): 2.34%
- Stability RE ([3]; autosampler for 24 h (8 ℃), low nominal conc. (losartan 0.2, E-3174 10, E-3179 0.4 ng/mL)): 2.96%
- Stability RE ([3]; autosampler for 24 h (8 ℃), middle nominal conc. (losartan 2000, E-3174 1000, E-3179 400 ng/mL)): 12.05%
- Stability RE ([3]; room temperature for 6 h, high nominal conc. (losartan 8000, E-3174 4000, E-3179 1600 ng/mL)): -10.69%
- Stability RE ([3]; room temperature for 6 h, low nominal conc. (losartan 0.2, E-3174 10, E-3179 0.4 ng/mL)): -2.22%
- Stability RE ([3]; room temperature for 6 h, middle nominal conc. (losartan 2000, E-3174 1000, E-3179 400 ng/mL)): 4.87%
- Stability RE ([3]; three freeze-thaw cycles, high nominal conc. (losartan 8000, E-3174 4000, E-3179 1600 ng/mL)): 6.66%
- Stability RE ([3]; three freeze-thaw cycles, low nominal conc. (losartan 0.2, E-3174 10, E-3179 0.4 ng/mL)): 2.96%
- Stability RE ([3]; three freeze-thaw cycles, middle nominal conc. (losartan 2000, E-3174 1000, E-3179 400 ng/mL)): 2.84%
- Stability RE ([3]; −80°C for 30 days, high nominal conc. (losartan 8000, E-3174 4000, E-3179 1600 ng/mL)): 7.58%
- Stability RE ([3]; −80°C for 30 days, low nominal conc. (losartan 0.2, E-3174 10, E-3179 0.4 ng/mL)): 3.27%
- Stability RE ([3]; −80°C for 30 days, middle nominal conc. (losartan 2000, E-3174 1000, E-3179 400 ng/mL)): 9.16%

Structure (SMILES): CCOC(=O)C1=C(COCCN)NC(C)=C(C(=O)OC)C1c1ccccc1Cl (centres unmarked) [amlodipine]
- Systemic exposure in antibiotic-treated rats vs controls [4]: significantly elevated
